Values of other authors in patent US20050137262A1, “Highly concentrated pourable aqueous solutions of potassium ibuprofen, their preparation and their uses” (priority 2003, published 2005).

CC(C)Cc1ccc(C(C)C(=O)[O-])cc1.[K+] (centres unmarked) [potassium ibuprofen, potassium 2-(4-isobutylphenyl)propionate]
concentration of dissolved potassium ibuprofen (U.S. Pat No. 5,912,011 Table 1, system with 35.2 wt % ibuprofen, 33.3 wt % PEG 600, 7.3 wt % water): 24.2 wt % | maximum concentration of dissolved potassium ibuprofen shown (U.S. Pat. No. 6,387,400, polyethylene glycol solvent, less than about 50 mole % of ibuprofen converted to potassium salt): about 24.2 wt %
